Read-outs that look alike come from different tables or passages of the source.
Key:
Format in all cases: cell-based
Conditions in all cases: Homo sapiens, 5 hours at 37° C., 1% DMSO
Aβ-38 = Aβ-38 level in conditioned media of 2B7 cells (MSD 3-PLEX ELISA)
Procedure: (§1) Assays were conducted to determine the ability of a Compound of Formula I to modulate […], and Aβ-38.
(§2) Human (6E10) Ab 3-PLEX ELISA kits were purchased from Meso Scale Discovery Labs, 9328 Gaither Road, Gaithersburg, Md. 20877 (Catalog Number K15148E-3). Plates with capture antibodies were blocked for 1-2 hours at room temperature with 150 μL of the manufactures blocking reagent.
(§3) Cultured 2B7 cells in 96 well plate with 250 μL of media per well until confluent;
(§4) Prepared serial dilutions of compounds in DMSO at 100× the final desired concentration;
(§5) Washed wells with 2B7 cells 1× with 250 μL of media;
(§6) Diluted DMSO stocks 1:100 into media:
(§7) Added 250 μL of media containing compounds (1% DMSO) to wells with 2B7 cells for 5 hours at 37° C.
(§8) Diluted conditioned media: 1 part media with 1% DMSO and 1 part blocking buffer;
(§9) 150 μL of the 250 μL of conditioned media were used.
(§10) Seven point standard curve samples were prepared that contained Aβ-42, Aβ-40, and Aβ-38. The highest concentration of Aβ-42 and Aβ-38 was […] and the highest concentration of Aβ-40 was 10,000 pg/mL. Subsequent serial dilutions were 1:3 and the final composition of each sample was 1 part blocking buffer and 1 part cell medium containing 1% DMSO.
(§11) Blocked plates are washed 5× with MSD wash buffer with a plate washer;
(§12) 25 μL of detection antibody and blocker G reagent in MSD blocking solution was added;
(§13) 25 μL of samples (1 part conditioned media containing 1% DMSO and 1 part MSD blocking buffer) were then added;
(§14) Plates were incubated overnight at 4 degrees C. or 2 hours at room temperature.
(§15) Washed wells 5× with MSD wash buffer;
(§16) Added 150 μL 2×MSD read buffer;
(§17) Aβ peptide levels for each peptide were calculated from the standard curve using the MSD software provided with the MSD 2400 Imager. Percent vehicle values for each compound dosage were then calculated and fit to a 4 parameter curve generating IC50 values.

Aβ-42 = Aβ-42 level in conditioned media of 2B7 cells (MSD 3-PLEX ELISA)
Procedure: as §1, §2, §3, §4, §5, §6, §7, §8, §9, §10, §11, §12, §13, §14, §15, §16, §17

Aβ-40 = Aβ-40 level in conditioned media of 2B7 cells (MSD 3-PLEX ELISA)
Procedure: as §1, §2, §3, §4, §5, §6, §7, §8, §9, §10, §11, §12, §13, §14, §15, §16, §17

[1] = inflection of dose-response curve, read-out: Aβ 38 DR IC50 Inflection
[2] = inflection of dose-response curve, read-out: Aβ 42 DR IC50 Inflection
[3] = inflection of dose-response curve, read-out: Aβ 40 DR IC50 Inflection

CC(C)[C@@H](OC(=O)N1CCC1)[C@H]1C[C@@H](C)[C@H]2[C@H](O1)[C@H](O)[C@@]1(C)[C@@H]3CC[C@H]4C(C)(C)[C@@H](OC(=O)N5CCN(C6COC6)CC5)CC[C@@]45C[C@@]35CC[C@]21C [Compound I-14]
IC50 (Aβ-38; read-out: Aβ 38 IC50): 0.501 to 1 µM | IC50 (Aβ-42; read-out: Aβ 42 IC50): 0.501 to 1 µM

CC(C)[C@@H](OC(=O)N1CCC1)[C@H]1C[C@@H](C)[C@H]2[C@H](O1)[C@H](O)[C@@]1(C)[C@@H]3CC[C@H]4C(C)(C)[C@@H](OC(=O)NCCC(=O)O)CC[C@@]45C[C@@]35CC[C@]21C [Compound I-8]
IC50 (Aβ-40; read-out: Aβ 40 IC50): > 5 µM | IC50 (Aβ-38; [1]): 0.501 to 1 µM | IC50 (Aβ-38; read-out: Aβ 38 IC50): 0.501 to 1 µM | IC50 (Aβ-42; [2]): 0.501 to 1 µM | IC50 (Aβ-42; read-out: Aβ 42 IC50): 0.501 to 1 µM

CC(C)[C@@H](OC(=O)N1CCC1)[C@H]1C[C@@H](C)[C@H]2[C@H](O1)[C@H](O)[C@@]1(C)[C@@H]3CC[C@H]4C(C)(C)[C@@H](OC(=O)N[C@@H]5CCNC5=O)CC[C@@]45C[C@@]35CC[C@]21C [Compound I-5]
IC50 (Aβ-40; [3]): > 5 µM | IC50 (Aβ-40; read-out: Aβ 40 IC50): > 5 µM | IC50 (Aβ-38; [1]): 0.1 to 0.5 µM | IC50 (Aβ-38; read-out: Aβ 38 IC50): 0.1 to 0.5 µM | IC50 (Aβ-42; read-out: Aβ 42 IC50): 0.1 to 0.5 µM

COCCN1CCN(C(=O)O[C@H]2CC[C@]34C[C@]35CC[C@]3(C)[C@@H]6[C@H](O[C@@H]([C@H](OC(=O)N7CCC7)C(C)C)C[C@H]6C)[C@H](O)[C@@]3(C)[C@@H]5CC[C@H]4C2(C)C)CC1 [Compound I-12]
IC50 (Aβ-40; read-out: Aβ 40 IC50): > 5 µM | IC50 (Aβ-38; read-out: Aβ 38 IC50): 1 to 5 µM | IC50 (Aβ-42; read-out: Aβ 42 IC50): 0.501 to 1 µM

CC(C)[C@@H](OC(=O)N1CCC1)[C@H]1C[C@@H](C)[C@H]2[C@H](O1)[C@H](O)[C@@]1(C)[C@@H]3CC[C@H]4C(C)(C)[C@@H](OC(=O)N(C)CC(=O)O)CC[C@@]45C[C@@]35CC[C@]21C [Compound I-15]
IC50 (Aβ-40; read-out: Aβ 40 IC50): > 5 µM | IC50 (Aβ-38; read-out: Aβ 38 IC50): 0.501 to 1 µM | IC50 (Aβ-42; read-out: Aβ 42 IC50): 0.1 to 0.5 µM

CC(C)[C@@H](OC(=O)N1CCC1)[C@H]1C[C@@H](C)[C@H]2[C@H](O1)[C@H](O)[C@@]1(C)[C@@H]3CC[C@H]4C(C)(C)[C@@H](OC(=O)N[C@@H]5CCCNC5=O)CC[C@@]45C[C@@]35CC[C@]21C [Compound I-3]
IC50 (Aβ-40; [3]): > 5 µM | IC50 (Aβ-40; read-out: Aβ 40 IC50): > 5 µM | IC50 (Aβ-38; [1]): 1 to 5 µM | IC50 (Aβ-38; read-out: Aβ 38 IC50): 0.501 to 1 µM | IC50 (Aβ-42; [2]): 0.1 to 0.5 µM | IC50 (Aβ-42; read-out: Aβ 42 IC50): 0.1 to 0.5 µM

CC(C)[C@@H](OC(=O)N1CCC1)[C@H]1C[C@@H](C)[C@H]2[C@H](O1)[C@H](O)[C@@]1(C)[C@@H]3CC[C@H]4C(C)(C)[C@@H](OC(=O)N[C@H]5CCNC5=O)CC[C@@]45C[C@@]35CC[C@]21C [Compound I-2]
IC50 (Aβ-40; read-out: Aβ 40 IC50): > 5 µM | IC50 (Aβ-38; read-out: Aβ 38 IC50): 0.501 to 1 µM | IC50 (Aβ-42; read-out: Aβ 42 IC50): 0.1 to 0.5 µM

CC(C)[C@@H](OC(=O)N1CCC1)[C@H]1C[C@@H](C)[C@H]2[C@H](O1)[C@H](O)[C@@]1(C)[C@@H]3CC[C@H]4C(C)(C)[C@@H](OC(=O)N[C@@H](C)C(=O)O)CC[C@@]45C[C@@]35CC[C@]21C [Compound I-4]
IC50 (Aβ-40; read-out: Aβ 40 IC50): > 5 µM | IC50 (Aβ-38; [1]): 0.501 to 1 µM | IC50 (Aβ-38; read-out: Aβ 38 IC50): 1 to 5 µM | IC50 (Aβ-42; read-out: Aβ 42 IC50): 0.501 to 1 µM

CC(C)[C@@H](OC(=O)N1CCC1)[C@H]1C[C@@H](C)[C@H]2[C@H](O1)[C@H](O)[C@@]1(C)[C@@H]3CC[C@H]4C(C)(C)[C@@H](OC(=O)N5CC[C@@H](C(=O)O)C5)CC[C@@]45C[C@@]35CC[C@]21C [Compound I-10]
IC50 (Aβ-40; read-out: Aβ 40 IC50): > 5 µM | IC50 (Aβ-38; read-out: Aβ 38 IC50): 1 to 5 µM | IC50 (Aβ-42; read-out: Aβ 42 IC50): 1 to 5 µM

CC(C)[C@@H](OC(=O)N1CCC1)[C@H]1C[C@@H](C)[C@H]2[C@H](O1)[C@H](O)[C@@]1(C)[C@@H]3CC[C@H]4C(C)(C)[C@@H](OC(=O)N[C@H]5CCCNC5=O)CC[C@@]45C[C@@]35CC[C@]21C [Compound I-6]
IC50 (Aβ-40; [3]): > 5 µM | IC50 (Aβ-40; read-out: Aβ 40 IC50): > 5 µM | IC50 (Aβ-38; [1]): 0.1 to 0.5 µM | IC50 (Aβ-38; read-out: Aβ 38 IC50): 0.1 to 0.5 µM | IC50 (Aβ-42; read-out: Aβ 42 IC50): 0.1 to 0.5 µM

CC(C)[C@@H](OC(=O)N1CCC1)[C@H]1C[C@@H](C)[C@H]2[C@H](O1)[C@H](O)[C@@]1(C)[C@@H]3CC[C@H]4C(C)(C)[C@@H](OC(=O)N5CC(CNS(=O)(=O)C(F)(F)F)C5)CC[C@@]45C[C@@]35CC[C@]21C [Compound I-9]
IC50 (Aβ-38; read-out: Aβ 38 IC50): 1 to 5 µM | IC50 (Aβ-42; read-out: Aβ 42 IC50): 1 to 5 µM

CC(C)[C@@H](OC(=O)N1CCC1)[C@H]1C[C@@H](C)[C@H]2[C@H](O1)[C@H](O)[C@@]1(C)[C@@H]3CC[C@H]4C(C)(C)[C@@H](OC(=O)N5CC[C@H](C(=O)O)C5)CC[C@@]45C[C@@]35CC[C@]21C [Compound I-1]
IC50 (Aβ-40; [3]): > 5 µM | IC50 (Aβ-40; read-out: Aβ 40 IC50): > 5 µM | IC50 (Aβ-38; read-out: Aβ 38 IC50): 1 to 5 µM | IC50 (Aβ-42; [2]): 1 to 5 µM | IC50 (Aβ-42; read-out: Aβ 42 IC50): 1 to 5 µM

CC(C)[C@@H](OC(=O)N1CCC1)[C@H]1C[C@@H](C)[C@H]2[C@H](O1)[C@H](O)[C@@]1(C)[C@@H]3CC[C@H]4C(C)(C)[C@@H](OC(=O)N5CCNC(C(F)(F)F)C5)CC[C@@]45C[C@@]35CC[C@]21C (stereo partly drawn) [Compound I-13]
IC50 (Aβ-38; read-out: Aβ 38 IC50): 1 to 5 µM | IC50 (Aβ-42; read-out: Aβ 42 IC50): 1 to 5 µM

CC(C)[C@@H](OC(=O)N1CCC1)[C@H]1C[C@@H](C)[C@H]2[C@H](O1)[C@H](O)[C@@]1(C)[C@@H]3CC[C@H]4C(C)(C)[C@@H](OC(=O)N(C)C5CN(C)C5)CC[C@@]45C[C@@]35CC[C@]21C [Compound I-11]
IC50 (Aβ-40; [3]): > 5 µM | IC50 (Aβ-40; read-out: Aβ 40 IC50): > 5 µM | IC50 (Aβ-38; [1]): 0.1 to 0.5 µM | IC50 (Aβ-38; read-out: Aβ 38 IC50): 0.1 to 0.5 µM | IC50 (Aβ-42; [2]): < 0.1 µM | IC50 (Aβ-42; read-out: Aβ 42 IC50): < 0.1 µM
